Laboratory results from PMC6979384, “Characterization of the plant homeodomain (PHD) reader family for their histone tail interactions” (Epigenetics & Chromatin, 2020).

Assays:
Test in all cases: Histone peptide microarray
Type in all cases: binding, human
CHD4 (PPCC) = conditions: each array performed twice, total n = 4; for Array Heatmap signal (histone peptide microarray): GST-tagged CHD4 (PPCC = Dual PHD + Dual Chromodomain), sheet Array Heatmap
How it was run: (§1)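 Mean ± SD of 4 replicate array intensities; GST-PHD finger at 0.5 μM against 293 PTM-bearing histone peptides.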

ING1 = conditions: each array performed twice, total n = 4; for Array Heatmap signal (histone peptide microarray): GST-tagged ING1, sheet Array Heatmap
How it was run: as §1

MLL5 = conditions: each array performed twice, total n = 4; for Array Heatmap signal (histone peptide microarray): GST-tagged MLL5, sheet Array Heatmap
How it was run: as §1

TRIM66 (PB) = conditions: each array performed twice, total n = 4; for Array Heatmap signal (histone peptide microarray): GST-tagged TRIM66 (PB = PHD + Bromodomain), sheet Array Heatmap
How it was run: as §1

PHF21A = conditions: each array performed twice, total n = 4; for Array Heatmap signal (histone peptide microarray): GST-tagged PHF21A, sheet Array Heatmap
How it was run: as §1

MORC3 (CW) = conditions: each array performed twice, total n = 4; for Array Heatmap signal (histone peptide microarray): GST-tagged MORC3 (CW = CW-type Zn-finger), sheet Array Heatmap
How it was run: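 Each reader, produced as a GST fusion and purified, was tested at 0.5 μM on synthetic histone peptides (293 in total) carrying single or combinatorial marks. Intensities averaged over four replicates.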

CHD5 (PPCC) = conditions: each array performed twice, total n = 4; for Array Heatmap signal (histone peptide microarray): GST-tagged CHD5 (PPCC = Dual PHD + Dual Chromodomain), sheet Array Heatmap
How it was run: as §1

ING2 = conditions: each array performed twice, total n = 4; for Array Heatmap signal (histone peptide microarray): GST-tagged ING2, sheet Array Heatmap
How it was run: as §1

BPTF (PB) = conditions: each array performed twice, total n = 4; for Array Heatmap signal (histone peptide microarray): GST-tagged BPTF (PB = PHD + Bromodomain), sheet Array Heatmap
How it was run: as §1

AIRE (PP) = conditions: each array performed twice, total n = 4; for Array Heatmap signal (histone peptide microarray): GST-tagged AIRE (PP), sheet Array Heatmap
How it was run: as §1

DPF2 (PPC2W2) = conditions: each array performed twice, total n = 4; for Array Heatmap signal (histone peptide microarray): GST-tagged DPF2 (PPC2W2 = Dual PHD + C2W2-type Zn-finger), sheet Array Heatmap
How it was run: as §1

SP140L = conditions: each array performed twice, total n = 4; for Array Heatmap signal (histone peptide microarray): GST-tagged SP140L, sheet Array Heatmap
How it was run: as §1

ING5 = conditions: each array performed twice, total n = 4; for Array Heatmap signal (histone peptide microarray): GST-tagged ING5, sheet Array Heatmap
How it was run: as §1

KDM4C (TTP) = conditions: each array performed twice, total n = 4; for Array Heatmap signal (histone peptide microarray): GST-tagged KDM4C (TTP = Tandem Tudor domain + PHD), sheet Array Heatmap
How it was run: as §1

PHF2 = conditions: each array performed twice, total n = 4; for Array Heatmap signal (histone peptide microarray): GST-tagged PHF2, sheet Array Heatmap
How it was run: as §1

CHD5 (PCC) = conditions: each array performed twice, total n = 4; for Array Heatmap signal (histone peptide microarray): GST-tagged CHD5 (PCC = PHD + Dual Chromodomain), sheet Array Heatmap
How it was run: as §1

DIDO1 = conditions: each array performed twice, total n = 4; for Array Heatmap signal (histone peptide microarray): GST-tagged DIDO1, sheet Array Heatmap
How it was run: as §1

RAG2 = conditions: each array performed twice, total n = 4; for Array Heatmap signal (histone peptide microarray): GST-tagged RAG2, sheet Array Heatmap
How it was run: as §1

KDM5B (3) = conditions: each array performed twice, total n = 4; for Array Heatmap signal (histone peptide microarray): GST-tagged KDM5B (3), sheet Array Heatmap
How it was run: as §1

KDM7A = conditions: each array performed twice, total n = 4; for Array Heatmap signal (histone peptide microarray): GST-tagged KDM7A, sheet Array Heatmap
How it was run: as §1

PHF8 = conditions: each array performed twice, total n = 4; for Array Heatmap signal (histone peptide microarray): GST-tagged PHF8, sheet Array Heatmap
How it was run: as §1

PHF13 = conditions: each array performed twice, total n = 4; for Array Heatmap signal (histone peptide microarray): GST-tagged PHF13, sheet Array Heatmap
How it was run: as §1

KDM5B (1) = conditions: each array performed twice, total n = 4; for Array Heatmap signal (histone peptide microarray): GST-tagged KDM5B (1), sheet Array Heatmap
How it was run: as §1

ING4 = conditions: each array performed twice, total n = 4; for Array Heatmap signal (histone peptide microarray): GST-tagged ING4, sheet Array Heatmap
How it was run: as §1

PHF23 = conditions: each array performed twice, total n = 4; for Array Heatmap signal (histone peptide microarray): GST-tagged PHF23, sheet Array Heatmap
How it was run: as §1

TAF3 = conditions: each array performed twice, total n = 4; for Array Heatmap signal (histone peptide microarray): GST-tagged TAF3, sheet Array Heatmap
How it was run: as §1

ING3 = conditions: each array performed twice, total n = 4; for Array Heatmap signal (histone peptide microarray): GST-tagged ING3, sheet Array Heatmap
How it was run: as §1

PHRF1 (RP) = conditions: each array performed twice, total n = 4; for Array Heatmap signal (histone peptide microarray): GST-tagged PHRF1 (RP), sheet Array Heatmap
How it was run: as §1

BAZ2B = conditions: each array performed twice, total n = 4; for Array Heatmap signal (histone peptide microarray): GST-tagged BAZ2B, sheet Array Heatmap
How it was run: as §1

KDM5A (3) = conditions: each array performed twice, total n = 4; for Array Heatmap signal (histone peptide microarray): GST-tagged KDM5A (3), sheet Array Heatmap
How it was run: as §1

KDM5A (1) = conditions: each array performed twice, total n = 4; for Array Heatmap signal (histone peptide microarray): GST-tagged KDM5A (1), sheet Array Heatmap
How it was run: as §1

## H3R2me2a + K4me3: H3 1-20
CHD4 (PPCC)
  Array Heatmap signal (histone peptide microarray): 0.5963
ING1
  Array Heatmap signal (histone peptide microarray): 0.5767
MLL5
  Array Heatmap signal (histone peptide microarray): 0.7481
TRIM66 (PB)
  Array Heatmap signal (histone peptide microarray): 0.6477
PHF21A
  Array Heatmap signal (histone peptide microarray): 0.4989
MORC3 (CW)
  Array Heatmap signal (histone peptide microarray): 0.8119
CHD5 (PPCC)
  Array Heatmap signal (histone peptide microarray): 0.5913
ING2
  Array Heatmap signal (histone peptide microarray): 0.6869
BPTF (PB)
  Array Heatmap signal (histone peptide microarray): 0.4143
AIRE (PP)
  Array Heatmap signal (histone peptide microarray): 0.4826
DPF2 (PPC2W2)
  Array Heatmap signal (histone peptide microarray): 0.6763
SP140L
  Array Heatmap signal (histone peptide microarray): 0.3488
ING5
  Array Heatmap signal (histone peptide microarray): 0.4004
KDM4C (TTP)
  Array Heatmap signal (histone peptide microarray): 0.6181
PHF2
  Array Heatmap signal (histone peptide microarray): 0.6438
CHD5 (PCC)
  Array Heatmap signal (histone peptide microarray): 0.8429
DIDO1
  Array Heatmap signal (histone peptide microarray): 0.8005
RAG2
  Array Heatmap signal (histone peptide microarray): 0.449
KDM5B (3)
  Array Heatmap signal (histone peptide microarray): 0.6231
KDM7A
  Array Heatmap signal (histone peptide microarray): 0.5712
PHF8
  Array Heatmap signal (histone peptide microarray): 0.6195
PHF13
  Array Heatmap signal (histone peptide microarray): 0.6893
KDM5B (1)
  Array Heatmap signal (histone peptide microarray): 0.7318
ING4
  Array Heatmap signal (histone peptide microarray): 0.4758
PHF23
  Array Heatmap signal (histone peptide microarray): 0.6448
TAF3
  Array Heatmap signal (histone peptide microarray): 0.3674
ING3
  Array Heatmap signal (histone peptide microarray): 0.5638
PHRF1 (RP)
  Array Heatmap signal (histone peptide microarray): 0.4573
BAZ2B
  Array Heatmap signal (histone peptide microarray): 0.4862
KDM5A (3)
  Array Heatmap signal (histone peptide microarray): 0.8444
KDM5A (1)
  Array Heatmap signal (histone peptide microarray): 0.4987

## H2BK5me3: H2B 1-24 [Peptide H2BK5me3]
CHD4 (PPCC); CHD4 (PPCC), sheet "Array Heatmap"
  Array Heatmap value (peptide array signal): 0.5374
ING1; ING1, sheet "Array Heatmap"
  Array Heatmap value (peptide array signal): 0.5322
MLL5; MLL5, sheet "Array Heatmap"
  Array Heatmap value (peptide array signal): 0.5755
TRIM66 (PB); TRIM66 (PB), sheet "Array Heatmap"
  Array Heatmap value (peptide array signal): 0.6056
PHF21A; PHF21A, sheet "Array Heatmap"
  Array Heatmap value (peptide array signal): 0.4302
MORC3 (CW); MORC3 (CW), sheet "Array Heatmap"
  Array Heatmap value (peptide array signal): 0.3836
CHD5 (PPCC); CHD5 (PPCC), sheet "Array Heatmap"
  Array Heatmap value (peptide array signal): 0.5383
ING2; ING2, sheet "Array Heatmap"
  Array Heatmap value (peptide array signal): 0.6172
BPTF (PB); BPTF (PB), sheet "Array Heatmap"
  Array Heatmap value (peptide array signal): 0.341
AIRE (PP); AIRE (PP), sheet "Array Heatmap"
  Array Heatmap value (peptide array signal): 0.3902
DPF2 (PPC2W2); DPF2 (PPC2W2), sheet "Array Heatmap"
  Array Heatmap value (peptide array signal): 0.6454
SP140L; SP140L, sheet "Array Heatmap"
  Array Heatmap value (peptide array signal): 0.332
ING5; ING5, sheet "Array Heatmap"
  Array Heatmap value (peptide array signal): 0.3443
KDM4C (TTP); KDM4C (TTP), sheet "Array Heatmap"
  Array Heatmap value (peptide array signal): 0.446
PHF2; PHF2, sheet "Array Heatmap"
  Array Heatmap value (peptide array signal): 0.5404
CHD5 (PCC); CHD5 (PCC), sheet "Array Heatmap"
  Array Heatmap value (peptide array signal): 0.766
DIDO1; DIDO1, sheet "Array Heatmap"
  Array Heatmap value (peptide array signal): 0.7661
RAG2; RAG2, sheet "Array Heatmap"
  Array Heatmap value (peptide array signal): 0.2767
KDM5B (3); KDM5B (3), sheet "Array Heatmap"
  Array Heatmap value (peptide array signal): 0.4604
KDM7A; KDM7A, sheet "Array Heatmap"
  Array Heatmap value (peptide array signal): 0.3153
PHF8; PHF8, sheet "Array Heatmap"
  Array Heatmap value (peptide array signal): 0.3604
PHF13; PHF13, sheet "Array Heatmap"
  Array Heatmap value (peptide array signal): 0.5645
KDM5B (1); KDM5B (1), sheet "Array Heatmap"
  Array Heatmap value (peptide array signal): 0.6322
ING4; ING4, sheet "Array Heatmap"
  Array Heatmap value (peptide array signal): 0.4354
PHF23; PHF23, sheet "Array Heatmap"
  Array Heatmap value (peptide array signal): 0.5495
TAF3; TAF3, sheet "Array Heatmap"
  Array Heatmap value (peptide array signal): 0.2673
ING3; ING3, sheet "Array Heatmap"
  Array Heatmap value (peptide array signal): 0.4743
PHRF1 (RP); PHRF1 (RP), sheet "Array Heatmap"
  Array Heatmap value (peptide array signal): 0.4726
BAZ2B; BAZ2B, sheet "Array Heatmap"
  Array Heatmap value (peptide array signal): 0.449
KDM5A (3); KDM5A (3), sheet "Array Heatmap"
  Array Heatmap value (peptide array signal): 0.4811
KDM5A (1); KDM5A (1), sheet "Array Heatmap"
  Array Heatmap value (peptide array signal): 0.4446

## H3K4ac + K14ac: H3 1-20
CHD4 (PPCC)
  Array Heatmap signal (histone peptide microarray): 0.5746
ING1
  Array Heatmap signal (histone peptide microarray): 0.5034
MLL5
  Array Heatmap signal (histone peptide microarray): 0.5464
TRIM66 (PB)
  Array Heatmap signal (histone peptide microarray): 0.6492
PHF21A
  Array Heatmap signal (histone peptide microarray): 0.4619
MORC3 (CW)
  Array Heatmap signal (histone peptide microarray): 0.433
CHD5 (PPCC)
  Array Heatmap signal (histone peptide microarray): 0.5648
ING2
  Array Heatmap signal (histone peptide microarray): 0.6101
BPTF (PB)
  Array Heatmap signal (histone peptide microarray): 0.4507
AIRE (PP)
  Array Heatmap signal (histone peptide microarray): 0.4945
DPF2 (PPC2W2)
  Array Heatmap signal (histone peptide microarray): 0.6791
SP140L
  Array Heatmap signal (histone peptide microarray): 0.3353
ING5
  Array Heatmap signal (histone peptide microarray): 0.3447
KDM4C (TTP)
  Array Heatmap signal (histone peptide microarray): 0.505
PHF2
  Array Heatmap signal (histone peptide microarray): 0.5218
CHD5 (PCC)
  Array Heatmap signal (histone peptide microarray): 0.8648
DIDO1
  Array Heatmap signal (histone peptide microarray): 0.6468
RAG2
  Array Heatmap signal (histone peptide microarray): 0.2771
KDM5B (3)
  Array Heatmap signal (histone peptide microarray): 0.5625
KDM7A
  Array Heatmap signal (histone peptide microarray): 0.4116
PHF8
  Array Heatmap signal (histone peptide microarray): 0.3555
PHF13
  Array Heatmap signal (histone peptide microarray): 0.6284
KDM5B (1)
  Array Heatmap signal (histone peptide microarray): 0.6896
ING4
  Array Heatmap signal (histone peptide microarray): 0.4509
PHF23
  Array Heatmap signal (histone peptide microarray): 0.5688
TAF3
  Array Heatmap signal (histone peptide microarray): 0.2918
ING3
  Array Heatmap signal (histone peptide microarray): 0.5142
PHRF1 (RP)
  Array Heatmap signal (histone peptide microarray): 0.5779
BAZ2B
  Array Heatmap signal (histone peptide microarray): 0.8376
KDM5A (3)
  Array Heatmap signal (histone peptide microarray): 0.4971
KDM5A (1)
  Array Heatmap signal (histone peptide microarray): 0.4998
